Reference: ChEMBL document CHEMBL5154743, “Bicyclic Heterocyclic Replacement of an Aryl Amide Leading to Potent and Kinase-Selective Adaptor Protein 2-Associated Kinase 1 Inhibitors” (J Med Chem, 2022)

How the values were obtained:
[1] = target: T1, AP2-associated protein kinase 1 (Homo sapiens, UniProt Q2M2I8)
[2] = Permeability across basolateral to apical side in human Caco-2 cells incubated for 2 hrs by LC-MS/MS analysis; format: ADME, cell-based; conditions: for Papp B→A at 2 h: Caco-2, read-out: permeability
[3] = Permeability across apical to basolateral side in human Caco-2 cells incubated for 2 hrs by LC-MS/MS analysis
[4] = Plasma protein binding in human assessed as unbound fraction at 10 uM incubated for 5 hrs by rapid equlibrium dialysis based LC-MS/MS method
[5] = Plasma protein binding in mouse assessed as unbound fraction at 10 uM incubated for 5 hrs by rapid equlibrium dialysis based LC-MS/MS method
[6] = Plasma protein binding in rat assessed as unbound fraction at 10 uM incubated for 5 hrs by rapid equlibrium dialysis based LC-MS/MS method
[7] = Metabolic stability in mouse liver microsomes assessed as parent compound remaining at 0.5 uM incubated for 10 mins in presence of NADPH by LC-MS/MS analysis; format: ADME, Microsome; conditions: read-out: Stability
[8] = Metabolic stability in rat liver microsomes assessed as parent compound remaining at 0.5 uM incubated for 10 mins in presence of NADPH by LC-MS/MS analysis; format: ADME, Microsome; conditions: read-out: Stability
[9] = Permeability of the compound at pH 7.4 by PAMPA; format: ADME; conditions: read-out: permeability
[10] = target: T1, AP2-associated protein kinase 1; assay: Inhibition of full length human AAK1 expressed in HEK293F incubated for 3 hrs by Western blot analysis; format: cell-based
[11] = Metabolic stability in human liver microsomes assessed as parent compound remaining at 0.5 uM incubated for 10 mins in presence of NADPH by LC-MS/MS analysis; format: ADME, Microsome; conditions: read-out: Stability
[12] = Ratio of drug concentration in brain to plasma in C57BL6 mouse at 30 mg/kg, sc; format: ADME, organism-based; conditions: read-out: BPR
[13] = Permeability of the compound at pH 5.5 by PAMPA; format: ADME; conditions: read-out: permeability
[14] = Brain concentration in C57BL6 mouse at 30 mg/kg, sc by LC-MS analysis; format: ADME, organism-based; conditions: in vivo, read-out: Ct
[15] = Plasma concentration in C57BL6 mouse at 30 mg/kg, sc by LC-MS/MS analysis; format: ADME, organism-based; conditions: in vivo
[16] = Unbound brain to plasma concentration ratio in C57BL6 mouse at 30 mg/kg, sc; format: ADME, organism-based; conditions: read-out: K(p,uu,brain)
[17] = target: Serine/threonine-protein kinase 16 (Homo sapiens, UniProt O75716); assay: Inhibition of MPSK1 (unknown origin)
Chain of Serine/threonine-protein kinase 16 (O75716 whole entry): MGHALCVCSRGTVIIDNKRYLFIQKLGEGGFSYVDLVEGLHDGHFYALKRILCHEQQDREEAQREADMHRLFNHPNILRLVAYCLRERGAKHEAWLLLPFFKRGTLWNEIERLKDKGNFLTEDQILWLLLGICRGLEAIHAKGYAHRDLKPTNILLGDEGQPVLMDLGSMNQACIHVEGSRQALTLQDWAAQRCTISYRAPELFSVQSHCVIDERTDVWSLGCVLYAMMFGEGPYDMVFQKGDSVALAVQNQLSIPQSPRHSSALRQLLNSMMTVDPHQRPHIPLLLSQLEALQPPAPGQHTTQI

[18] = target: BMP-2-inducible protein kinase (Homo sapiens, UniProt Q9NSY1); assay: Inhibition of BIKE (unknown origin)
Chain of BMP-2-inducible protein kinase (Q9NSY1 whole entry): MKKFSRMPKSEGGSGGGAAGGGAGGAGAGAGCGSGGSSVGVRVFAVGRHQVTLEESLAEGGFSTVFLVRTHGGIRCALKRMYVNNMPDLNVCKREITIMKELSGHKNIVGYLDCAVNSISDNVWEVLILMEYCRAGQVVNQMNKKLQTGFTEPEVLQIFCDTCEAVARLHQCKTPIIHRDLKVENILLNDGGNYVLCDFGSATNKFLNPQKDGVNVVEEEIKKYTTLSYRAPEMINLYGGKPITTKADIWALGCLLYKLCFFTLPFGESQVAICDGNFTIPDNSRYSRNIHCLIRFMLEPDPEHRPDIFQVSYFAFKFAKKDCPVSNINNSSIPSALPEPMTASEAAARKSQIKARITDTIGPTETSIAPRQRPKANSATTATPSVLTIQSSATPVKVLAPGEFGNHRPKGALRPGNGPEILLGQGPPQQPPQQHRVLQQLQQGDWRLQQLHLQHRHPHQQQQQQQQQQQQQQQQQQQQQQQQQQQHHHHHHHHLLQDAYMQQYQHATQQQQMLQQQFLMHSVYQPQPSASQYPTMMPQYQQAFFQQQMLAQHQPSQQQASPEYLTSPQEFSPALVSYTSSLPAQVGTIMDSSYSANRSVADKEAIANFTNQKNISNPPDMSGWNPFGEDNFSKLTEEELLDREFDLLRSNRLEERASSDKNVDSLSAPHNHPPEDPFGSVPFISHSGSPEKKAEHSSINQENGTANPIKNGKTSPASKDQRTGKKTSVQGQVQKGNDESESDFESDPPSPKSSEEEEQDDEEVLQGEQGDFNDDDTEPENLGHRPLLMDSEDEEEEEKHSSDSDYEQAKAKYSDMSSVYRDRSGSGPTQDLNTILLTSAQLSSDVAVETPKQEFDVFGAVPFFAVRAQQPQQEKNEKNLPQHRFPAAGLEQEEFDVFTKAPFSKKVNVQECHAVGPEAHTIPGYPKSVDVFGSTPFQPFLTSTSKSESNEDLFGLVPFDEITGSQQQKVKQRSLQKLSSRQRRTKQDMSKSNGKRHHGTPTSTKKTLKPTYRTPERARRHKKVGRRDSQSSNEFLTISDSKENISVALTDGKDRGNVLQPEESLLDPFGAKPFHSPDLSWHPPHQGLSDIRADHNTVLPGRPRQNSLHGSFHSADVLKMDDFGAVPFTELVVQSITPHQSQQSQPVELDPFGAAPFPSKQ

[19] = target: T2, Cyclin-G-associated kinase (Homo sapiens, UniProt O14976); assay: Inhibition of GAK (unknown origin)
T2 sequence (O14976 whole entry): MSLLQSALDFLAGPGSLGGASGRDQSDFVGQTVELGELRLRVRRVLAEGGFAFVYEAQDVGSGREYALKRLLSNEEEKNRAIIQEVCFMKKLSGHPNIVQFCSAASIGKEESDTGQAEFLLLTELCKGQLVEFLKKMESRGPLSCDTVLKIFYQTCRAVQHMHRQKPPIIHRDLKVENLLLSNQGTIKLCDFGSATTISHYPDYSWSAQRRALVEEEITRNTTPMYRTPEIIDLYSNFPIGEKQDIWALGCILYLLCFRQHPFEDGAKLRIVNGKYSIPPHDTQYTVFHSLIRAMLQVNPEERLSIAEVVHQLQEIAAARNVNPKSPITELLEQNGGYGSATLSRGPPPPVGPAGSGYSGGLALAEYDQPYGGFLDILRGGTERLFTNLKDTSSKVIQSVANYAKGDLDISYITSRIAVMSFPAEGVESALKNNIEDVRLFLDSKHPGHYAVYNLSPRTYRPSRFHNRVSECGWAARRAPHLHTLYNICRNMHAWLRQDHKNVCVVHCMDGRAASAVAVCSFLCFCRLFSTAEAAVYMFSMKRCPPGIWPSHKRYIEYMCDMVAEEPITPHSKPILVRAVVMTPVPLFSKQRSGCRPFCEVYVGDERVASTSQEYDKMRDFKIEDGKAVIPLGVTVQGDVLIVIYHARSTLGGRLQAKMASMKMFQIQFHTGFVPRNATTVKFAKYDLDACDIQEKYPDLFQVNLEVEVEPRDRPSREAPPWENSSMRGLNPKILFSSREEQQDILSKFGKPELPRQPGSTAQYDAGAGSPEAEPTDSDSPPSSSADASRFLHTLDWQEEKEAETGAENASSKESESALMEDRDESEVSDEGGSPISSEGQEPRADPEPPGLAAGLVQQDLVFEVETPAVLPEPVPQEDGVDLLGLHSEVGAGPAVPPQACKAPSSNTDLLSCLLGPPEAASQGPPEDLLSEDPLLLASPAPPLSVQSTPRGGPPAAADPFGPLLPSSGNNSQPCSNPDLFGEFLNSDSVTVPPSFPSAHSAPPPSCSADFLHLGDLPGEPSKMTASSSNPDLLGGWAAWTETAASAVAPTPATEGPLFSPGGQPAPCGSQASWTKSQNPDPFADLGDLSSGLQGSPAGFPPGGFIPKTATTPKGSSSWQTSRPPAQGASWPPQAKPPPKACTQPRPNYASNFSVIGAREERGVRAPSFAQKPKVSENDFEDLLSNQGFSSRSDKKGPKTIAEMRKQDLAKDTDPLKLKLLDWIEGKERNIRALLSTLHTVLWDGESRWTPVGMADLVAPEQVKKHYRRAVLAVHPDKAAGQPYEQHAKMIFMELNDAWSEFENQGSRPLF

[20] = target: Glycogen synthase kinase-3 beta (Homo sapiens, UniProt P49841); assay: Inhibition of GSK3beta (unknown origin)
Chain of Glycogen synthase kinase-3 beta (P49841 whole entry): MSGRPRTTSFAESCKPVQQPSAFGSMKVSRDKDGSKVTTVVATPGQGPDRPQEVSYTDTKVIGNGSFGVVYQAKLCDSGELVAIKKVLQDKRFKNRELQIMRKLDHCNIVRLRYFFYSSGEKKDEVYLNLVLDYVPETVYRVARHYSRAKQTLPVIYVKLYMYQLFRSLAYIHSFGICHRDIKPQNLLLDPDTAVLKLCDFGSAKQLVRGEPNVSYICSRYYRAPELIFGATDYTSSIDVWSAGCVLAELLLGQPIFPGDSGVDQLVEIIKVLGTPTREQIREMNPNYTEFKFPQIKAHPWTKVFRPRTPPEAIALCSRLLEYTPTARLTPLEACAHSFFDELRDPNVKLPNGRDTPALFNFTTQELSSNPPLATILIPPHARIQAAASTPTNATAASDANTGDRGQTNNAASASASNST

[21] = target: MAP kinase-interacting serine/threonine-protein kinase 1 (Homo sapiens, UniProt Q9BUB5); assay: Inhibition of MNK1 (unknown origin)
Chain of MAP kinase-interacting serine/threonine-protein kinase 1 (Q9BUB5 whole entry): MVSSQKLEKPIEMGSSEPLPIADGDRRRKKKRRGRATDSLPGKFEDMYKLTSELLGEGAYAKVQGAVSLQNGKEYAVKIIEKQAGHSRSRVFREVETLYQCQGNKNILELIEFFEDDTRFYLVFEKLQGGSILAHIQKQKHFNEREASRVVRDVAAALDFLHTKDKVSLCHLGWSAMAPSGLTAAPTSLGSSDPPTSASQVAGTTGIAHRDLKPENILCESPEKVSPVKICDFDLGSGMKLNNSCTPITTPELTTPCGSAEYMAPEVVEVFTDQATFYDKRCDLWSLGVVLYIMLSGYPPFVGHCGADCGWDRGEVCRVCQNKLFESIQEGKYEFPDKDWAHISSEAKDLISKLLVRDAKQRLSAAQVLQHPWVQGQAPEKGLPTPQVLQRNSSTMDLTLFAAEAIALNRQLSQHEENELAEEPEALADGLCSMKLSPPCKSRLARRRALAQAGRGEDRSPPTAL

[22] = target: T3, Serine/threonine-protein kinase Chk1 (Homo sapiens, UniProt O14757); assay: Inhibition of CHK1 (unknown origin)
T3 sequence (O14757 whole entry): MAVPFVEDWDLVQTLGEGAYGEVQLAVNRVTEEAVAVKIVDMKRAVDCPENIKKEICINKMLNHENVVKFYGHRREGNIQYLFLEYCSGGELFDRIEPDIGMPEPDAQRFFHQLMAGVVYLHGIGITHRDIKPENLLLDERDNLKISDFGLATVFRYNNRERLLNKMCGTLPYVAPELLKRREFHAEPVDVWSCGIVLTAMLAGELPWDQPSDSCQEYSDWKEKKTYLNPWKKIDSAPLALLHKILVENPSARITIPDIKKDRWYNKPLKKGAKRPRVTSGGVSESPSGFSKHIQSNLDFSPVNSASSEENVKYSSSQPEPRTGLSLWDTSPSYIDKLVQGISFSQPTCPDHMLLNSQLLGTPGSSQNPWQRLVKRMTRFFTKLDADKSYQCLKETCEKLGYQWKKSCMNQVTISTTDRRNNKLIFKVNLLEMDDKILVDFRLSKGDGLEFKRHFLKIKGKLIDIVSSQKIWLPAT

[23] = Plasma concentration in C57BL6 mouse at 60 mg/kg, sc by LC-MS/MS analysis; format: ADME, organism-based; conditions: in vivo
[24] = Unbound brain to plasma concentration ratio in C57BL6 mouse at 60 mg/kg, sc; format: ADME, organism-based; conditions: read-out: K(p,uu,brain)
[25] = Brain concentration in C57BL6 mouse at 60 mg/kg, sc by LC-MS analysis; format: ADME, organism-based; conditions: in vivo, read-out: Ct
[26] = Ratio of drug concentration in brain to plasma in C57BL6 mouse at 60 mg/kg, sc; format: ADME, organism-based; conditions: read-out: BPR

T1 sequence (Q2M2I8 whole entry): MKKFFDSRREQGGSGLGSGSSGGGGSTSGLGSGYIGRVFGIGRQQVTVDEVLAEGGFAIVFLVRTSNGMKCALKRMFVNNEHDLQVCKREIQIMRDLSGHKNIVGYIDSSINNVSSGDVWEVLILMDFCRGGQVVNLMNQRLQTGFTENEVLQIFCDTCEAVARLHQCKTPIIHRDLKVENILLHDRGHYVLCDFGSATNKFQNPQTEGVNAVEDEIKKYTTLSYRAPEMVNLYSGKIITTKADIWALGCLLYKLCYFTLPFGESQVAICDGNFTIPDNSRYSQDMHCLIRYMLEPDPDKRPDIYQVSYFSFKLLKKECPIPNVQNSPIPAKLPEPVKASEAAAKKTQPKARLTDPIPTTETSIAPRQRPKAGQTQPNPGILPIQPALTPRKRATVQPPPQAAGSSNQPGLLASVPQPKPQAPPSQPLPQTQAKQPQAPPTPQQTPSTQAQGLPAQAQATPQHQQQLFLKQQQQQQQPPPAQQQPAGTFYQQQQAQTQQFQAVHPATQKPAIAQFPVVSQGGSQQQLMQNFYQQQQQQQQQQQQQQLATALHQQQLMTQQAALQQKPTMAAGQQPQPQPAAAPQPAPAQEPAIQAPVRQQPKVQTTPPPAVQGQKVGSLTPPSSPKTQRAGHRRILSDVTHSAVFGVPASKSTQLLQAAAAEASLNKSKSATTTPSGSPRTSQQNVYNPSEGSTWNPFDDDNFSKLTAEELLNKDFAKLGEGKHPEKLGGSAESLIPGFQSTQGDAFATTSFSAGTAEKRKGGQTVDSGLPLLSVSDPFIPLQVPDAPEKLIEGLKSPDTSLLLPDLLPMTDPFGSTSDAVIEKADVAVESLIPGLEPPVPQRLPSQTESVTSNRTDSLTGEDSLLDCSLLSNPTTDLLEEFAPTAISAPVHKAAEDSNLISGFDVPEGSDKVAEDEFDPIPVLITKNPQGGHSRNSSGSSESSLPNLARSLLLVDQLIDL

SMILES: CCc1nc(C(N)CC(C)C)nc2cc(OC)c(-c3ccncc3)cc12 (centres undefined)
- IC50 [1]: 420 nM

SMILES: CC(C)CC(N)c1ccc2cc(-c3ccncc3)ccc2n1 (centres undefined)
- IC50 [1]: 21 nM

SMILES: CCc1nc(C(N)CC(C)C)nc2ccc(-c3cnco3)cc12 (centres undefined)
- IC50 [1]: 67 nM

SMILES: COc1cc2nc(C(N)CC(C)C)ncc2cc1-c1cnco1 (centres undefined)
- IC50 [1]: 110 nM

SMILES: CCc1nc(C(N)CC(C)C)nc2ccc(-c3ccncc3)cc12 (centres undefined)
- IC50 [1]: 44 nM

SMILES: CC(C)C[C@H](N)c1cc(C#N)c2cc(-c3cnco3)ccc2n1
- Papp B→A at 2 h [2]: 5.7 ×10⁻⁶ cm/s
- IC50 [1]: 4.2 nM
- Papp A→B at 2 h [3]: 7.1 ×10⁻⁶ cm/s
- fraction unbound at 5 h, 10 µM [4]: 0.014
- fraction unbound at 5 h, 10 µM [5]: 0.03
- fraction unbound at 5 h, 10 µM [6]: 0.009
- remaining at 10 min, 0.5 µM [7]: 71%
- remaining at 10 min, 0.5 µM [8]: 56%
- Papp [9]: 93 ×10⁻⁶ cm/s
- IC50 [10]: 32 nM
- remaining at 10 min, 0.5 µM [11]: 76%

SMILES: COc1cc2nc(C(N)CC(C)C)nc(C#N)c2cc1-c1cnco1 (centres undefined)
- IC50 [1]: 6.2 nM

SMILES: CC(C)CC(N)c1nc(C#N)c2cc(-c3ccncc3)ccc2n1 (centres undefined)
- IC50 [1]: 16 nM

SMILES: CC(C)C[C@@H](N)c1cc(C#N)c2cc(-c3ccncc3)ccc2n1
- Kp [12]: 1.3
- Papp B→A at 2 h [2]: 10.3 ×10⁻⁶ cm/s
- IC50 [1]: 11 nM
- Papp [13]: 40 ×10⁻⁶ cm/s
- Papp A→B at 2 h [3]: 13.5 ×10⁻⁶ cm/s
- fraction unbound at 5 h, 10 µM [4]: 0.18
- fraction unbound at 5 h, 10 µM [5]: 0.13
- fraction unbound at 5 h, 10 µM [6]: 0.045
- remaining at 10 min, 0.5 µM [7]: 77%
- concentration [14]: 29 µM
- remaining at 10 min, 0.5 µM [8]: 43%
- concentration [15]: 23 µM
- Kp uu [16]: 0.4
- Papp [9]: 30.7 ×10⁻⁶ cm/s
- IC50 [10]: 108 nM
- remaining at 10 min, 0.5 µM [11]: 83%

SMILES: CCc1nc([C@@H](N)CC(C)C)nc2ccc(-c3cnco3)cc12
- Papp B→A at 2 h [2]: 15.6 ×10⁻⁶ cm/s
- IC50 [1]: 30 nM
- Papp [13]: 93.5 ×10⁻⁶ cm/s
- Papp A→B at 2 h [3]: 18.4 ×10⁻⁶ cm/s
- fraction unbound at 5 h, 10 µM [4]: 0.32
- fraction unbound at 5 h, 10 µM [5]: 0.11
- fraction unbound at 5 h, 10 µM [6]: 0.25
- remaining at 10 min, 0.5 µM [7]: 56%
- remaining at 10 min, 0.5 µM [8]: 26%
- Papp [9]: 90.7 ×10⁻⁶ cm/s
- IC50 [10]: 49 nM
- remaining at 10 min, 0.5 µM [11]: 62%

SMILES: CC(C)C[C@H](N)c1cc(C#N)c2cc(-c3ccncc3)ccc2n1
- Kp [12]: 1.5
- Papp B→A at 2 h [2]: 4.4 ×10⁻⁶ cm/s
- IC50 [1]: 5.8 nM
- Papp [13]: 112 ×10⁻⁶ cm/s
- IC50 [17]: > 1000 nM
- Papp A→B at 2 h [3]: 11.4 ×10⁻⁶ cm/s
- fraction unbound at 5 h, 10 µM [4]: 0.18
- fraction unbound at 5 h, 10 µM [5]: 0.14
- fraction unbound at 5 h, 10 µM [6]: 0.054
- IC50 [18]: 161 nM
- remaining at 10 min, 0.5 µM [7]: 56%
- IC50 [19]: > 1000 nM
- concentration [14]: 23 µM
- remaining at 10 min, 0.5 µM [8]: 50%
- concentration [15]: 16 µM
- Kp uu [16]: 0.4
- IC50 [20]: 112 nM
- IC50 [21]: 57 nM
- Papp [9]: 96.9 ×10⁻⁶ cm/s
- IC50 [10]: 19 nM
- remaining at 10 min, 0.5 µM [11]: 72%
- IC50 [22]: 998 nM

SMILES: CCc1nc([C@H](N)CC(C)C)nc2ccc(-c3cnco3)cc12
- IC50 [1]: 220 nM

SMILES: CC(C)C[C@@H](N)c1cc(C#N)c2cc(-c3cnco3)ccc2n1
- IC50 [1]: 22 nM

SMILES: CCNc1nc(C(N)CC(C)C)nc2ccc(-c3cnco3)cc12 (centres undefined)
- IC50 [1]: 1100 nM

SMILES: CCc1nc([C@H](N)CC(C)C)nc2cc(OC)c(-c3cnco3)cc12
- IC50 [1]: 95 nM

SMILES: CCOc1nc(C(N)CC(C)C)nc2ccc(-c3cnco3)cc12 (centres undefined)
- IC50 [1]: 340 nM

SMILES: CC(C)C[C@@H](N)C(=O)Nc1ccc(-c2cnco2)c(OC(F)F)c1
- concentration [23]: 41 µM
- Kp uu [24]: 0.5
- permeability ([2]; caco-2, 2 h): 11.3 10^-6 cm/s
- concentration [25]: 27 µM
- Papp [13]: 96.7 ×10⁻⁶ cm/s
- Papp [9]: 91.8 ×10⁻⁶ cm/s
- Kp [26]: 0.7

SMILES: CC(C)CC(N)c1cc(C#N)c2cc(-c3ccncc3)ccc2n1 (centres undefined)
- IC50 [1]: 7.3 nM

SMILES: CC(C)CC(N)c1nc2ccc(-c3ccncc3)cc2cc1C#N (centres undefined)
- IC50 [1]: 1800 nM

SMILES: CCc1nc([C@@H](N)CC(C)C)nc2cc(OC)c(-c3cnco3)cc12
- Papp B→A at 2 h [2]: 14.2 ×10⁻⁶ cm/s
- IC50 [1]: 12 nM
- Papp [13]: 80.3 ×10⁻⁶ cm/s
- Papp A→B at 2 h [3]: 13.4 ×10⁻⁶ cm/s
- fraction unbound at 5 h, 10 µM [4]: 0.17
- fraction unbound at 5 h, 10 µM [5]: 0.1
- fraction unbound at 5 h, 10 µM [6]: 0.077
- remaining at 10 min, 0.5 µM [7]: 47%
- remaining at 10 min, 0.5 µM [8]: 43%
- Papp [9]: 78.5 ×10⁻⁶ cm/s
- IC50 [10]: 34 nM
- remaining at 10 min, 0.5 µM [11]: 83%
